# Test results published in US20190053492A1, “SUBSTITUTED PYRIDINE COMPOUNDS AS PESTICIDES” (Bayer CropScience Aktiengesellschaft, priority 2016, published 2019).
# Like-named read-outs stand apart in the source and are kept apart here.
# Columns and labels:
# Spodoptera frugiperda = Spodoptera frugiperda spray test; assay type: in vivo; details: after 7 days, maize leaf discs; for pest or weed control at 100 g/ha / pest or weed control at 500 g/ha: Spodoptera frugiperda, foliar, 168 h, read-out: efficacy (caterpillars killed)
# How it was run: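 Efficacy in % was scored at 7 days against armyworm caterpillars placed on dried, compound-sprayed Zea mays leaf discs. Compound was dissolved in acetone/dimethylformamide and diluted in water with 1000 ppm alkylaryl polyglycol ether. 100% means all caterpillars were killed.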
# [1] = log P by HPLC on reversed-phase column (C 18), EEC Directive 79/831 Annex V.A8; assay type: physicochemical; details: 55° C.; for LOGP_HCOOH: log P (HCOOH); for chromatographic logP: reversed-phase HPLC column (C 18)
# Procedure: Temperature: 55° C. […] Called log P (HCOOH) in the table. […] Called log P (neutral) in the table.
# Lucilia cuprina = Lucilia cuprina test; assay type: in vivo; details: application rate 100 ppm, after 2 days, L1 larvae
# Procedure: Lucilia cuprina Test Solvent: dimethyl sulphoxide To produce a suitable active ingredient formulation, 10 mg of active ingredient are mixed with 0.5 ml of dimethyl sulphoxide, and the concentrate is diluted with water to the desired concentration. About 20 L1 larvae of the Australian sheep blowfly (Lucilia cuprina) are transferred into a test vessel containing minced horsemeat and the active ingredient formulation of the desired concentration. After 2 days, the kill in % is determined. 100% means that all the larvae have been killed; 0% means that no larvae have been killed.
# Phaedon cochleariae = Phaedon cochleariae spray test; assay type: in vivo; details: after 7 days, Chinese cabbage leaf discs
# How it was run: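 Larval kill read at day 7 as percent, where 100% means every larva dead and 0% none; larvae were placed on dried Brassica pekinensis leaf discs previously sprayed with the formulation (acetone/dimethylformamide solvent, alkylaryl polyglycol ether emulsifier, water).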
# Ctenocephalides felis = Ctenocephalides felis oral test; assay type: in vivo; details: application rate 100 ppm in citrated cattle blood, after 2 days, adult cat fleas; for pest or weed control at 100 ppm: Ctenocephalides felis, po, 48 h, read-out: efficacy (kill in %)
# Procedure: Ctenocephalides felis—Oral Test Solvent: dimethyl sulphoxide To produce a suitable active ingredient formulation, 10 mg of active ingredient are mixed with 0.5 ml of dimethyl sulphoxide. Dilution with citrated cattle blood gives the desired concentration. About 20 unfed adult cat fleas (Ctenocephalides felis) are placed into a chamber which is closed at the top and bottom with gauze. A metal cylinder whose bottom end is closed with parafilm is placed onto the chamber. The cylinder contains the blood/active ingredient formulation, which can be imbibed by the fleas through the parafilm membrane. After 2 days, the kill in % is determined. 100% means that all of the fleas have been killed; 0% means that none of the fleas have been killed.
# [2] = acidic range pH 2.7, 0.1% aqueous formic acid and acetonitrile, reversed-phase column (C 18)
# [3] = log P, neutral range, HPLC on reversed-phase column (C 18)
# [4] = pH 2.7, LC-MS acidic range, pH 2.7, 0.1% formic acid/acetonitrile, read-out: log P (acidic) / log P (HCOOH)
# [5] = pH 7.8, LC-MS neutral range, pH 7.8, ammonium hydrogencarbonate/acetonitrile, read-out: log P (neutral)
# [6] = Phaedon cochleariae, foliar, 168 h, application rate 500 g/ha, read-out: efficacy (beetle larvae killed)
# [7] = acidic range at pH 2.7, 0.1% aqueous formic acid and acetonitrile, HPLC on reversed-phase column (C 18)
SMILES,"LOGP_HCOOH [1, 2]","LOGP_NEUTRAL [1, 3]","LOGP_HCOOH [1, 7]",efficacy (caterpillars killed) (Spodoptera frugiperda; application rate 100 g/ha) [%],efficacy (caterpillars killed) (Spodoptera frugiperda; application rate 500 g/ha) [%],efficacy (kill in %) (Lucilia cuprina) [%],efficacy (beetle larvae killed) (Phaedon cochleariae; application rate 100 g/ha) [%],efficacy (beetle larvae killed) (Phaedon cochleariae; application rate 500 g/ha) [%],efficacy (kill in %) (Ctenocephalides felis) [%],pest or weed control at 100 g/ha (Spodoptera frugiperda; application rate 100 g/ha) [%],pest or weed control at 500 g/ha (Spodoptera frugiperda; application rate 500 g/ha) [%],"chromatographic logP [1, 4]","chromatographic logP [1, 5]","pest or weed control at 100 g/ha (Phaedon cochleariae; Phaedon cochleariae, foliar, 168 h, application rate 100 g/ha, read-out: efficacy (beetle larvae killed)) [%]",pest or weed control at 500 g/ha (Phaedon cochleariae; [6]) [%],pest or weed control at 100 ppm (Ctenocephalides felis) [%],"LOGP_NEUTRAL ([1]; log P (neutral), HPLC reversed-phase column (C 18))"
N#Cc1ccc(CNC(=O)c2cc(-c3ccc(C(F)(F)F)cc3)cc(NC(=O)C3CC3)n2)cc1 [Example I-005],3.73,–,–,100,100,100,100,100,100,–,–,–,–,–,–,–,–
O=C(NCc1ccc(Cl)cc1)c1cc(-c2ccc(C(F)(F)F)cc2)cc(NC(=O)C2CC2)n1 [Example I-008],4.48,4.34,–,100,100,95,–,–,100,–,–,–,–,–,–,–,–
CC(C)C(=O)Nc1cc(-c2ccc(C(F)(F)F)cc2)cc(C(=O)NCc2ccc(C#N)cc2)n1 [Example I-015],3.91,3.85,–,100,100,100,83,100,98,–,–,–,–,–,–,–,–
O=C(Nc1ccc(Cl)cc1)c1cc(-c2ccc(C(F)(F)F)cc2)cc(NC(=O)C2CC2)n1 [Example I-021],4.96,5.08,–,–,100,85,–,100,–,–,–,–,–,–,–,–,–
O=C(NCc1ccc(C(F)(F)F)cc1)c1cc(-c2ccc(C(F)(F)F)cc2)cc(NC(=O)C2CC2)n1 [Example I-027],4.62,4.50,–,100,100,90,100,100,100,–,–,–,–,–,–,–,–
O=C(NC1CC1)c1cc(-c2ccc(OC(F)F)cc2)cc(NC(=O)C2CC2)n1 [Example I-030],2.94,2.83,–,83,100,90,100,100,100,–,–,–,–,–,–,–,–
"COC(=O)N(C(=O)C1CC1)c1cc(-c2ccc(OC(F)(F)F)cc2)cc(C(=O)NCc2ccc(C#N)cc2)n1 [Example I-233, Methyl {6-[(4-cyanobenzyl)carbamoyl]-4-[4-(trifluoromethoxy)phenyl]pyridin-2-yl}(cyclopropylcarbonyl)carbamate]",3.90,–,–,–,–,–,–,–,–,100,100,3.9,3.91,–,100,100,3.91

# Second part, led by results:
"LOGP_HCOOH [1, 2]","LOGP_NEUTRAL [1, 3]","LOGP_HCOOH [1, 7]",SMILES,efficacy (caterpillars killed) (Spodoptera frugiperda; application rate 100 g/ha) [%],efficacy (caterpillars killed) (Spodoptera frugiperda; application rate 500 g/ha) [%],efficacy (kill in %) (Lucilia cuprina) [%],efficacy (beetle larvae killed) (Phaedon cochleariae; application rate 100 g/ha) [%],efficacy (beetle larvae killed) (Phaedon cochleariae; application rate 500 g/ha) [%],efficacy (kill in %) (Ctenocephalides felis) [%],pest or weed control at 100 g/ha (Spodoptera frugiperda; application rate 100 g/ha) [%],pest or weed control at 500 g/ha (Spodoptera frugiperda; application rate 500 g/ha) [%],"chromatographic logP [1, 4]","chromatographic logP [1, 5]","pest or weed control at 100 g/ha (Phaedon cochleariae; Phaedon cochleariae, foliar, 168 h, application rate 100 g/ha, read-out: efficacy (beetle larvae killed)) [%]",pest or weed control at 500 g/ha (Phaedon cochleariae; [6]) [%],pest or weed control at 100 ppm (Ctenocephalides felis) [%],"LOGP_NEUTRAL ([1]; log P (neutral), HPLC reversed-phase column (C 18))"
3.67,3.58,–,CN(Cc1ccc(C#N)cc1)C(=O)c1cc(-c2ccc(C(F)(F)F)cc2)cc(NC(=O)C2CC2)n1 [Example I-043],–,100,100,–,100,100,–,–,–,–,–,–,–,–
3.90,3.76,–,"N#Cc1ccc(CNC(=O)c2cc(-c3ccc(OC(F)(F)F)cc3)cc(NC(=O)C3CC3)n2)cc1 [Example I-044, N-(4-Cyanobenzyl)-6-[(cyclopropylcarbonyl)amino]-4-[4-(trifluoromethoxy)phenyl]pyridine-2-carboxamide]",–,–,100,–,–,–,100,100,3.9,3.76,100,100,100,–
4.59,3.47,–,CCC(=O)Nc1cc(-c2ccc(C(F)(F)F)cc2)cc(C(=O)NCc2ccc(C#N)cc2)n1 [Example I-048],83,100,100,–,100,–,–,–,–,–,–,–,–,–
4.19,4.01,–,N#Cc1ccc(CNC(=O)c2cc(-c3ccc(SC(F)(F)F)cc3)cc(NC(=O)C3CC3)n2)cc1 [Example I-052],100,100,100,100,100,100,–,–,–,–,–,–,–,–
3.73,3.61,–,N#Cc1ccc(CNC(=O)c2cc(-c3ccc(Br)cc3)cc(NC(=O)C3CC3)n2)cc1 [Example I-053],–,100,100,–,100,95,–,–,–,–,–,–,–,–
–,–,4.00,O=C(NC1CCC1)c1cc(-c2ccc(OC(F)(F)F)cc2)cc(NC(=O)C2CC2)n1 [Example I-133],100,100,100,–,–,100,–,–,–,–,–,–,–,–
–,3.86,4.07,N#Cc1ccc(CNC(=O)c2cc(-c3ccc(SC4CC4)cc3)cc(NC(=O)C3CC3)n2)cc1 [Example I-142],–,–,90,100,100,100,–,–,–,–,–,–,–,–
–,3.14,3.25,NC(=S)C1(NC(=O)c2cc(-c3ccc(OC(F)(F)F)cc3)cc(NC(=O)C3CC3)n2)CC1 [Example I-189],100,100,–,100,100,100,–,–,–,–,–,–,–,–
–,–,4.64,O=C(NCc1ccc(F)c(C(F)(F)F)c1)c1cc(-c2ccc(OC(F)(F)F)cc2)cc(NC(=O)C2CC2)n1 [Example I-226],83,100,–,–,100,100,–,–,–,–,–,–,–,–
